How the values were obtained:
[1] = biological target: T1, human HERG1 channel (Homo sapiens, UniProt Q12809); assay: Complementation of growth deficiency by HERG1 on culture plates in the presence of activators; type: cell-based; conditions: 2 mM CsCl, DPM 5 mM KCl pH 6.5, FIG. 4
T1 construct: expressed in transfected cells; host or cells: Saccharomyces cerevisiae Δtrk1 Δtrk2 Δtok1 (YM182 background; strain YM196), vector p423-GPD3
Text: (§1) Each of the strains YM168 (Δtrk1 Δtrk2) and YM182 (Δtrk1 Δtrk2 Δtok1) was transformed with the human potassium channels Kv1.5 ((Fedida, D. et al, 1998); YM190 and YM195) and HERG1 ((Fedida, D. et al., 1998); YM191 and YM196) in p423-GPD3, respectively, as yeast expression vector. gpIRK1 ((Tang, W. et al., 1995); YM193 and YM198) acted as positive control in p423-GPD3 as yeast expression vector (Mumberg, D. et al., 1995; Ronicke, V. et al., 1997). The blank vector p423-GPD3 (YM189 and YM194) acted as negative control. The transformed yeast strains were plated onto (−)HIS/80 mM KCl medium. After this, patches of single colonies were replica-plated onto DPM/5 mM KCl (pH 6.5) to check the capacity of complementing the potassium deficiency.
(§2) Kv1.5: Rb^+ extends the hyperpolarization phase. This means that the inwardly directed K^+ flux is more prolonged and increases the possibility of complementing the growth deficiency.
HERG: Cs^+ extends the hyperpolarization phase. This means that the inwardly directed K^+ flux is more prolonged and increases the possibility of complementing the growth deficiency. This channel is inhibited by Cs^+. IRK1: Cs^+ blocks this channel.

[2] = biological target: T2, gpIRK1 (Cavia porcellus, UniProt P52185); assay: Complementation of growth deficiency by gpIRK1 in the presence of CsCl; type: cell-based, guinea pig; conditions: 2 mM CsCl
T2 construct: expressed in transfected cells; host or cells: Saccharomyces cerevisiae Δtrk1 Δtrk2 (YM193) and Δtrk1 Δtrk2 Δtok1 (YM198), vector p423-GPD3
T2 sequence (P52185 1-427): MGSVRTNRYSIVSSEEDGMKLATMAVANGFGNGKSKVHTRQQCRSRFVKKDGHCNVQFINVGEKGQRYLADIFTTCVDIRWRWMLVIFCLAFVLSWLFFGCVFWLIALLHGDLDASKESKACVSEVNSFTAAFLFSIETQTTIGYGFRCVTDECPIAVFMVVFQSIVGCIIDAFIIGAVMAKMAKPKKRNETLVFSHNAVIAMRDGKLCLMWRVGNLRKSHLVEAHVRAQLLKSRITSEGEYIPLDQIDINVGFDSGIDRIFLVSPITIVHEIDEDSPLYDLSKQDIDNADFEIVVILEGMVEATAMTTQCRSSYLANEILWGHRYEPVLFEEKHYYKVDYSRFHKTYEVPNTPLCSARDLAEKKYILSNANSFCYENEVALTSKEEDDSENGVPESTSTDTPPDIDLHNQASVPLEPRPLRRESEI
Text: as §1

[3] = biological target: T3, human Kv1.5 channel (Homo sapiens, UniProt P22460, DEL187-187/DEL55-55/P188G/P307A/R154P); assay: Complementation of growth deficiency by Kv1.5 in the presence of activators; type: cell-based
T3 construct: expressed in transfected cells; host or cells: Saccharomyces cerevisiae Δtrk1 Δtrk2 Δtok1 (YM195; also Δtrk1 Δtrk2 YM190), vector p423-GPD3
T3 sequence (P22460 with tags, fused parts or gaps DEL55-55/R154P/DEL187-187/P188G/P307A): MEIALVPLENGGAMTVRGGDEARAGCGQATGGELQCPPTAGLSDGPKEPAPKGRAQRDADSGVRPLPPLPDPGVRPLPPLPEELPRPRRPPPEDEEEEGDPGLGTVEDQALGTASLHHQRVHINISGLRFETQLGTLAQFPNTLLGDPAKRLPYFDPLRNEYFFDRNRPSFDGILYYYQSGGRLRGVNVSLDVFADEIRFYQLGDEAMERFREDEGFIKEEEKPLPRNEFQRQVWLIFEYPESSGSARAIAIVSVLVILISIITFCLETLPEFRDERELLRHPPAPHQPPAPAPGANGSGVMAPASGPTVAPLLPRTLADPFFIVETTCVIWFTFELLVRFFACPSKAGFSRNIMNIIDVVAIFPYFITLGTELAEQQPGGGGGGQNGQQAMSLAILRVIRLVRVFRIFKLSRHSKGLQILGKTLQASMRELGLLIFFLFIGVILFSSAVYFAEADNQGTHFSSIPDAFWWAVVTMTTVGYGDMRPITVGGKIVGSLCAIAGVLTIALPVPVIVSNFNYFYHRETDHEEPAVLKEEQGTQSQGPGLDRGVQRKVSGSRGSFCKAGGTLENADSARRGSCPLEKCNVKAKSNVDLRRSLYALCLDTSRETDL
Text: as §1, §2
The yeast strains YM 194 and YM 195 were tested in DPM/-HIS/5 mM KCl with 1 mM RbCl for the different growth behavior in liquid medium. To this end, 10 ml of overnight culture were set up in DPM/-HIS/80 mM KCl and, next morning, brought to an OD600 of 0.05 with the relevant media (final volume: 20 ml). The optical density at 600 nm was determined at defined intervals with the aid of a photometer.

[4] = test system: triple mutant Δtrk1Δtrk2Δtok1 with p423GPD; assay: Growth of triple mutant Δtrk1Δtrk2Δtok1 with blank vector p423GPD (YM194), OD 620 nm; type: cell-based, Saccharomyces cerevisiae; conditions: 2 mM RbCl; DPM-HIS 5 mM KCl, pH 6.5, 24 hours growth, starting OD 0.01
Description: The cell density was measured after 24 hours' growth (density of the starter culture: 0.01 OD620) via determination of the optical density at a wavelength of 620 nm. The values corresponded to the average of in each case 4 measurements±SD.

[5] = biological target: T4, human potassium channel ROMK2 (Homo sapiens, UniProt P48048); assay: Growth of triple mutant Δtrk1Δtrk2Δtok1 expressing ROMK2 (YM256), OD 620 nm; type: cell-based; conditions: 2 mM RbCl
T4 construct: expressed in transfected cells; host or cells: Saccharomyces cerevisiae Δtrk1Δtrk2Δtok1, strain YM256, vector p423GPD
T4 sequence (P48048 1-372 isoform P48048-2): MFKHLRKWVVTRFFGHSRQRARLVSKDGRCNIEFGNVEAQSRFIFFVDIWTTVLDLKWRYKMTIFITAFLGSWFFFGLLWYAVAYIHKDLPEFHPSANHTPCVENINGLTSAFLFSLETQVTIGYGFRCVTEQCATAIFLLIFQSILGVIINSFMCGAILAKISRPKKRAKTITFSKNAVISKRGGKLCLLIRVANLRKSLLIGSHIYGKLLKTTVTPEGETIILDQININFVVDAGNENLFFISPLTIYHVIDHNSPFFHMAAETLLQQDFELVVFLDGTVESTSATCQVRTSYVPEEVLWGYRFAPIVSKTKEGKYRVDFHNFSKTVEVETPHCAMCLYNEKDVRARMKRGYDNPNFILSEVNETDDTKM
Text: The human potassium channel ROMK2 ((Shuck, M. E. et al., 1994; Bock, J. H. et al., 1997); Sequence SEQ ID NO. 31 hROMK2) was subcloned into the yeast vector p423GPD and transformed into the triple mutant Δtrk1Δtrk2Δtok1.

T1 sequence (Q12809 whole entry): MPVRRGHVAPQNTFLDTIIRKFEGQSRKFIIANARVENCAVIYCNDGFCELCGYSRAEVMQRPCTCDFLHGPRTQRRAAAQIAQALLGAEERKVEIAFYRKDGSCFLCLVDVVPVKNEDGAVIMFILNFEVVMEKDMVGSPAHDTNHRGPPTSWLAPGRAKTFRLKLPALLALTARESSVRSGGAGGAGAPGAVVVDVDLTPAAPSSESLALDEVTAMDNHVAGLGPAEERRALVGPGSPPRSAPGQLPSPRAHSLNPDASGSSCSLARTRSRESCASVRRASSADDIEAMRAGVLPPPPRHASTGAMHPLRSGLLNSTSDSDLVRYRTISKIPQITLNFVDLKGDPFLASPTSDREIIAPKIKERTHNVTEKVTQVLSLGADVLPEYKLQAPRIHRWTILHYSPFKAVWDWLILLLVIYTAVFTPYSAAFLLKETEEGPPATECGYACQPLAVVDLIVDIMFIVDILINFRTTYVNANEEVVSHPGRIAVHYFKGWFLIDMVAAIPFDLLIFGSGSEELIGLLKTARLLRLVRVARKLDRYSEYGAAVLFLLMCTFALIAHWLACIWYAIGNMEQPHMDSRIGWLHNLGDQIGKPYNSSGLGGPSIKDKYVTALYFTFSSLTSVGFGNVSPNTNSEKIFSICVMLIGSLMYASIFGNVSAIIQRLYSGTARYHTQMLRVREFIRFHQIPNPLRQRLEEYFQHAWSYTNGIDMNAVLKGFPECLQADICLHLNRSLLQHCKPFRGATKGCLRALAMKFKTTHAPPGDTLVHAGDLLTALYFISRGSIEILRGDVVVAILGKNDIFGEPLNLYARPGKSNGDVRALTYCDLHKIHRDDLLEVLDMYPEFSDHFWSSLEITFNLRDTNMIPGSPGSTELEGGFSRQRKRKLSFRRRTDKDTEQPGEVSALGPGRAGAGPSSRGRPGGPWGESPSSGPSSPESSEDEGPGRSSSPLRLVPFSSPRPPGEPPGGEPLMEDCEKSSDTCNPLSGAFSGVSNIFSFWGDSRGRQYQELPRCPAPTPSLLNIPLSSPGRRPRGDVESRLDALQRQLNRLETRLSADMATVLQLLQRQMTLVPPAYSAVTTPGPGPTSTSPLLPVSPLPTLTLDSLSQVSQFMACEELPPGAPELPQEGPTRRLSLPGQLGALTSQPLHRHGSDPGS

[Cl-].[Cs+] [CsCl]
complementation of the growth deficiency of the Δtrk1 Δtrk2 Δtok1 mutant by human HERG1 in the presence of activator [1]: fully complementing
complementation of the growth deficiency by gpIRK1 in the presence of CsCl [2]: inhibited
complementation of the growth deficiency by Kv1.5 in the presence of CsCl ([3]; 2 mM CsCl): inhibited

[Cl-].[Rb+] [RbCl]
194 (average growth of p423GPD strain YM194, OD) [4]: 0.048
complementation of the growth deficiency of the Δtrk1 Δtrk2 Δtok1 mutant by human Kv1.5 in the presence of activator ([3]; 2 mM RbCl, culture plates, DPM 5 mM KCl pH 6.5, FIG. 3): fully complementing
256 (average growth of p423GPD-ROMK2 strain YM256, OD) ([5]; DPM-HIS 5 mM KCl, pH 6.5, 24 hours growth, starting OD 0.01): 0.44
Signal to noise ratio S/N ([5]; YM256 versus YM194, DPM-HIS 5 mM KCl, pH 6.5, 24 hours): 8.46
